Measured values reported in US5827890A, “Succinamide derivatives, processes for their preparation and their use as gelatinase and collagenase inhibitors” (Celltech Therapeutics Ltd., priority 1993, dated 1998).

Assays:
gelatinase A (72 K form) = test: Pleural cavity assay, oral activity in mice (injected gelatinase A and radiolabelled [14C]-gelatin); type: in vivo; details: for inhibition (comparative experiment): each compound administered at the same dose (dose not stated)
Method: The oral activity of the compounds according to the invention may be determined using the pleural cavity assay described below.
A […] solution of the test compound in an appropriate solvent (e.g. 50% polyethylene glycol (PG) plus a variable proportion of dimethyl sulphoxide (DMSO) (if required) is administered orally. After an interval of up to 24 hrs, 0.4 ml of a mixture of an equal volume (2.2 ml) of the enzyme gelatinase A (72 K form at a concentration of 20 nM) and radiolabelled [^14 C]-gelatin (at an approximate concentration of 10 μM i.e. 500 times molar excess) is injected into the pleural cavity and maintained at […]. After 35 min mice are overdosed with anaesthetic, the contents of the pleural cavity aspirated and the aspirates cleared by centrifugation at 4° C. then diluted to 15% in trichloroacetic acid (TCA) and left overnight at 4° C. The resulting TCA precipitate is then separated by centrifugation and radioactivity in each supernatant measured by scintillation counting. Results are expressed as a % inhibition of enzyme activity calculated by comparing the radioactivity measured for each test compound with a control value obtained by performing the same assay in the absence of a gelatinase inhibitor.
A comparative experiment was carried out using the same procedure and the compound of Example 1 [A] and the amides [B], [C] and [D] (prepared in a similar fashion to the compound of Example 1): [drawing 19]

Collagenase = target: T1, Collagenase (Homo sapiens, UniProt P03956); test: Enzyme assay to determine Ki values, peptide substrate Dnp-Pro-Leu-Gly-Leu-Trp-Ala-D-Arg-NH2 (collagenase); type: biochemical; details: for Ki: incubated overnight, pH 7.5, Ki (app) assumed to approximate true Ki
T1 sequence (P03956 100-469): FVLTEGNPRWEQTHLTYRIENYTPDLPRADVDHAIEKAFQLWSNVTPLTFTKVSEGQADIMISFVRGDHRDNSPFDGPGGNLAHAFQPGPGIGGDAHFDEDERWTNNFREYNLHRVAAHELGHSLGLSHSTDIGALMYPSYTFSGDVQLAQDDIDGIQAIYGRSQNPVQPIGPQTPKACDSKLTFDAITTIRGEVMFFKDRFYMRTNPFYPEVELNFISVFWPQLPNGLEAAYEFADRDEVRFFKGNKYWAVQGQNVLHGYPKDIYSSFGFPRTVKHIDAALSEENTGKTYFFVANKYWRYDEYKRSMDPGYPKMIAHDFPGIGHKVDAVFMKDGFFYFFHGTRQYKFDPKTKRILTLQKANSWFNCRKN
Method: (§1) The activity of the compounds of the invention may be determined as described below.
(§2) All enzyme assays to determine Ki values were performed using the peptide substrate Dnp-Pro-Leu-Gly-Leu-Trp-Ala-D-Arg-NH2. [M. Sharon Stock and Robert D. Gray. JBC 264, 4277-81, 1989). The enzymes cleave at the Gly-Leu bond which can be followed fluorimetrically by measuring the increase in Trp fluorescence emission associated with the removal of the quenching dinitrophenol (Dnp) group.
(§3) Brij 35 at either room temperature or 37° C. depending on the enzyme. The reaction is stopped by adjusting the pH to 4 using 0.1M sodium acetate buffer and the fluorescence read at an excitation wavelength of 280 nm and emission wavelength of 346 nm.
(§4) Ki values can be established using the equation for tight-binding inhibition: [formula] where Vo is the initial rate of reaction in the absence of inhibitor, Vi is the initial rate in the presence of inhibitor, [E] is the total enzyme concentration and [I] the total inhibitor concentration in the reaction mixture.
(§5) For stromelysin and collagenase, Ki (app) was assumed to approximate to the true Ki as [S]<<Km for the substrate hydrolysis. For gelatinase the Ki was determined by performing the analyses at several substrate concentrations. A plot of Ki (app) vs. [S] then gave the true Ki as the value of the y-axis intercept.

Gelatinase 72KD = target: T2, Gelatinase 72KD (Homo sapiens, UniProt P08253); test: Enzyme assay to determine Ki values, peptide substrate Dnp-Pro-Leu-Gly-Leu-Trp-Ala-D-Arg-NH2 (gelatinase 72KD); type: biochemical; details: for Ki: incubated overnight, pH 7.5, true Ki from plot of Ki (app) vs. [S]
T2 sequence (P08253 110-660): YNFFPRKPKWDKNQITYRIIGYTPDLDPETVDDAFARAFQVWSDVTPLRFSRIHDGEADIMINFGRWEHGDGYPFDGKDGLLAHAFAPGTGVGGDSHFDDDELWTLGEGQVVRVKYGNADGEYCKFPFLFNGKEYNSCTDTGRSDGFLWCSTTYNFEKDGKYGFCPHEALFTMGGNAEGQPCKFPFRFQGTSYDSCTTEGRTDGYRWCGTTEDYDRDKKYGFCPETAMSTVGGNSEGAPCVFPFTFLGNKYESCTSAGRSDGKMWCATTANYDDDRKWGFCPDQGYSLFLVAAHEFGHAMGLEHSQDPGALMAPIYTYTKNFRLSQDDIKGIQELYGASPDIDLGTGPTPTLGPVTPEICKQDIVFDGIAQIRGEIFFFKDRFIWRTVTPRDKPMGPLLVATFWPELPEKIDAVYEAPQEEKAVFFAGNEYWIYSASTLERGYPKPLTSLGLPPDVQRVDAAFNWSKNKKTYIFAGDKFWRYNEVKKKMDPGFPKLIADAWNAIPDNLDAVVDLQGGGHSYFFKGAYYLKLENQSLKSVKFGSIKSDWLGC
Method: as §1, §2, §3, §4, §5

Stromelysin-1 = Stromelysin-1 (Homo sapiens, UniProt P08254); test: Enzyme assay to determine Ki values, peptide substrate Dnp-Pro-Leu-Gly-Leu-Trp-Ala-D-Arg-NH2 (stromelysin-1); type: biochemical; details: incubated overnight, pH 7.5; Ki (app) assumed to approximate true Ki
Chain of Stromelysin-1 (P08254 100-477): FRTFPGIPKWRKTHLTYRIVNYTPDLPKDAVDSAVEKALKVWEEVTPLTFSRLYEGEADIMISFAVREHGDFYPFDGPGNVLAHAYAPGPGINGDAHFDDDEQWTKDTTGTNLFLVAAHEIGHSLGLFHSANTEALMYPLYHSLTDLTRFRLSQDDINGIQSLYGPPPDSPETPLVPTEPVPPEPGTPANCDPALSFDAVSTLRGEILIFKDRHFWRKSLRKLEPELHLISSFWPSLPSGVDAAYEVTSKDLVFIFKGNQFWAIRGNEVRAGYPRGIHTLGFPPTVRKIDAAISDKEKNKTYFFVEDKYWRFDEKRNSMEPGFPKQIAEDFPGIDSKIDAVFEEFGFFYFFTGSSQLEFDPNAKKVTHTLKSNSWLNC
Method: as §1, §2, §3, §4, §5

[1] = tested on: vascularisation of sponge implants; test: Inhibition of angiogenesis: vascularisation of sponge implants in mice, xenon clearance; type: in vivo; details: oral, twice per day, 100 mg/kg in PG vehicle, beginning 8 h after sponge implantation
Method: Compounds were assessed by their ability to inhibit vascularisation of sponge implants in mice. The amount of vascularisation in this model is determined by the rate of clearance of radioactive xenon from the sponge. Compounds in polyethylene glycol (PG) vehicle were orally administered twice per day at a dose of 100 mg/kg, with administration beginning 8 h after sponge implementation.
FIG. 1 illustrates the result of one experiment using the compound of Example 1. For comparative purposes the following compound (Compound [E]) was used: [drawing 20] (prepared as described in International Patent Application No. PCT/GB 94/00896).
The results are expressed in FIG. 1 as a graph of xenon clearance (expressed as a clearance constant) against time.

[2] = relative to the compound of Example 1

Structure (SMILES) | inhibition (comparative experiment) (gelatinase A (72 K form)) [%] | Ki (Collagenase) [nM] | Ki (Stromelysin-1) [nM] | Ki (Gelatinase 72KD) [nM] | % Inhibition of enzyme activity (gelatinase A (72 K form); at 10 mg/Kg) [%] | other results
CC(C)[C@H](NC(=O)[C@H](CCCc1ccc(Cl)cc1)CC(=O)NO)C(N)=O [Compound [B], reference compound] | 53 |  |  |  |  | 
CC(C)C[C@H](NC(=O)[C@H](CCCc1ccc(Cl)cc1)CC(=O)NO)C(N)=O [Compound [C], reference compound] | 25 |  |  |  |  | 
CCNC(=O)[C@@H](NC(=O)[C@H](CCCc1ccc(Cl)cc1)CC(=O)NO)C(C)(C)C [Compound [D], reference compound] | 11 |  |  |  |  | 
CNC(=O)[C@@H](NC(=O)[C@@H](CC(=O)NO)CC(C)C)C(C)(C)SC [Compound [E], reference compound] |  |  |  |  |  | fold more potent on collagenase than the compound of Example 1 (Collagenase; [2]): approximately 40 fold; fold less potent on gelatinase than the compound of Example 1 (Gelatinase 72KD; [2]): approximately 40 fold
CC(C)(C)[C@H](NC(=O)[C@H](CCCc1ccc(Cl)cc1)CC(=O)NO)C(N)=O [Example 1, N^4 Hydroxy-N^1-(1-(S)-carbamoyl-2.2-dimethylpropyl)-2-(R)-4(chlorophenylpropyl)succinamide] | 100 | 122 | 10.9 | 0.07 | 100 | inhibition of vascularisation / xenon clearance (FIG. 1) [1]: substantial inhibition of vascularisation as seen by the marked inhibition of xenon clearance, which was much greater than the inhibition achieved by the non-specific metalloproteinase inhibitor Compound [E]
CC(C)(C)[C@H](NC(=O)[C@H](CCCc1ccccc1)CC(=O)NO)C(N)=O [Example 2, N^4 -Hydroxy-N^1-(1-(S)-carbamoyl-2.2-dimethylpropyl)-2-(R)-(phenylpropyl)succinamide] |  |  |  |  | 73 | 
Cc1ccc(CCC[C@H](CC(=O)NO)C(=O)N[C@H](C(N)=O)C(C)(C)C)cc1 [Example 3, N^4 Hydroxy-N^1-(1-(S)-carbamoyl-2.2-dimethylpropyl)-2-(R)-(4-methylphenylpropyl)succinamide] |  | 491 | 10.2 | 0.042 | 95 | 
COc1ccc(CCC[C@H](CC(=O)NO)C(=O)N[C@H](C(N)=O)C(C)(C)C)cc1 [Example 4, N^4 -Hydroxy-N^1-(1-(S)-carbamoyl-2.2-dimethylpropyl)-2-(R)-(4-methoxyphenylpropyl)succinamide] |  |  |  | 0.023 | 82 | 
CNC(=O)[C@@H](NC(=O)[C@H](CCCc1ccc(Cl)cc1)CC(=O)NO)C(C)(C)C [Example 5, N^4 -Hydroxy-N^1-(1-(S)-methylaminocarbonyl-2.2-dimethylpropyl)-2-(R)-(4-chlorophenylpropyl)succinamide] |  | 22.5 | 2.64 |  | 64 | 
CC(C)(C)[C@H](NC(=O)[C@H](CCCc1ccc(F)cc1)CC(=O)NO)C(N)=O [Example 6, N^4 -Hydroxy-N^1-(1-(S)-carbamoyl-2.2-dimethylpropyl)-2-(R)-(4-fluorophenylpropyl)succinamide] |  |  |  | 0.21 | 76 | 
CNC(=O)[C@@H](NC(=O)[C@H](CCCc1ccc(C)cc1)CC(=O)NO)C(C)(C)C [Example 7, N^4 -Hydroxy-N^1-(1-(S)-methylaminocarbonyl-2.2-dimethylpropyl)-2-(R)-(4-methylphenylpropyl)succinamide] |  | 84.4 | 9.91 | 0.023 |  | % Inhibition of enzyme activity (gelatinase A (72 K form); at 80 mg/Kg): 100%
